From ChEMBL document CHEMBL1201862, “PubChem BioAssay data set” (2004)
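Tested at 5 concentrations; 48 h exposure; 96-well plates; endpoints linearly interpolated, else capped at highest concentration. GI50 is the concentration that inhibits growth by half.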 Calls of active or inactive are those of the source. Rule as the data show it: active = GI50 up to about 1.1 µM and inactive = higher.

Legend:
Experiment in all cases: NCI tumour cell line growth inhibition, 48 h
786-0 = tested on: 786-0
A549 = tested on: A549
ACHN = tested on: ACHN
CAKI-1 = tested on: CAKI-1
CCRF-CEM = tested on: CCRF-CEM
COLO 205 = tested on: COLO 205
DLD-1 = tested on: DLD-1
DMS-114 = tested on: DMS-114
DMS-273 = tested on: DMS-273
EKVX = tested on: EKVX
HCC 2998 = tested on: HCC 2998
HCT-116 = tested on: HCT-116
HCT-15 = tested on: HCT-15
HOP-62 = tested on: HOP-62
HT-29 = tested on: HT-29
IGROV-1 = tested on: IGROV-1
K562 = tested on: K562
KM-20L2 = tested on: KM-20L2
KM12 = tested on: KM12
LOX IMVI = tested on: LOX IMVI
LXFL 529 = tested on: LXFL 529
M14 = tested on: M14
MOLT-4 = tested on: MOLT-4
Malme-3M = tested on: Malme-3M
NCI-H226 = tested on: NCI-H226
NCI-H23 = tested on: NCI-H23
NCI-H460 = tested on: NCI-H460
NCI-H522 = tested on: NCI-H522
OVCAR-3 = tested on: OVCAR-3
OVCAR-4 = tested on: OVCAR-4
OVCAR-5 = tested on: OVCAR-5
OVCAR-8 = tested on: OVCAR-8
RPMI-8226 = tested on: RPMI-8226
SF-268 = tested on: SF-268
SF-295 = tested on: SF-295
SF-539 = tested on: SF-539
SK-MEL-28 = tested on: SK-MEL-28
SK-MEL-2 = tested on: SK-MEL-2
SK-MEL-5 = tested on: SK-MEL-5
SK-OV-3 = tested on: SK-OV-3
SN12C = tested on: SN12C
SNB-19 = tested on: SNB-19
SNB-75 = tested on: SNB-75
SNB-78 = tested on: SNB-78
SR = tested on: SR
SW-620 = tested on: SW-620
U-251 = tested on: U-251
UACC-257 = tested on: UACC-257
UACC-62 = tested on: UACC-62
UO-31 = tested on: UO-31
A498 = tested on: A498
DU-145 = tested on: DU-145
HL-60 = tested on: HL-60
HOP-92 = tested on: HOP-92
Hs-578T = tested on: Hs-578T
M19-MEL = tested on: M19-MEL
MCF7 = tested on: MCF7
MDA-MB-231 = tested on: MDA-MB-231
MDA-MB-435 = tested on: MDA-MB-435
MDA-N = tested on: MDA-N
NCI/ADR-RES = tested on: NCI/ADR-RES
PC-3 = tested on: PC-3
RXF 393 = tested on: RXF 393
T47D = tested on: T47D
TK-10 = tested on: TK-10

In the case of `O=c1[nH]c2nc3ccccc3c(=O)n2nc1Cc1ccccc1`, the GI50 (786-0) is reported as > 100 µM (inactive), the GI50 (A549) is reported as > 100 µM (inactive) and the GI50 (ACHN) is reported as > 100 µM (inactive). For the same compound, the GI50 (CAKI-1) was > 100 µM (inactive), the GI50 (CCRF-CEM) was > 100 µM (inactive) and the GI50 (COLO 205) was > 100 µM (inactive). The GI50 (DLD-1) was > 100 µM (inactive), the GI50 (DMS-114) was > 100 µM (inactive) and the GI50 (DMS-273) was > 100 µM (inactive). The GI50 (EKVX) was > 100 µM (inactive), the GI50 (HCC 2998) was > 100 µM (inactive) and the GI50 (HCT-116) was > 100 µM (inactive). For the same compound, the GI50 (HCT-15) was greater than 100 µM, the GI50 (HOP-62) was 16.3 µM (inactive) and the GI50 (HT-29) was > 100 µM (inactive). The GI50 (IGROV-1) was 45.1 µM (inactive), the GI50 (K562) was > 100 µM (inactive) and the GI50 (KM-20L2) was > 100 µM (inactive). The GI50 (KM12) was > 100 µM (inactive), the GI50 (LOX IMVI) was > 100 µM (inactive) and the GI50 (LXFL 529) was > 100 µM (inactive). For the same compound, the GI50 (M14) was > 100 µM (inactive), the GI50 (MOLT-4) was > 100 µM (inactive) and the GI50 (Malme-3M) was > 100 µM (inactive). The GI50 (NCI-H226) was 94.6 µM (inactive), the GI50 (NCI-H23) was > 100 µM (inactive) and the GI50 (NCI-H460) was > 100 µM (inactive). For the same compound, the GI50 (NCI-H522) was 98.2 µM (inactive), the GI50 (OVCAR-3) was 44.2 µM (inactive) and the GI50 (OVCAR-4) was 28.3 µM (inactive). For the same compound, the GI50 (OVCAR-5) was > 100 µM (inactive), the GI50 (OVCAR-8) was > 100 µM (inactive) and the GI50 (RPMI-8226) was > 100 µM (inactive). For the same compound, the GI50 (SF-268) was > 100 µM (inactive), the GI50 (SF-295) was > 100 µM (inactive) and the GI50 (SF-539) was > 100 µM (inactive). For the same compound, the GI50 (SK-MEL-28) was > 100 µM (inactive), the GI50 (SK-MEL-2) was > 100 µM (inactive) and the GI50 (SK-MEL-5) was > 100 µM (inactive). For the same compound, the GI50 (SK-OV-3) was 84.7 µM (inactive), the GI50 (SN12C) was > 100 µM (inactive) and the GI50 (SNB-19) was > 100 µM (inactive). For the same compound, the GI50 (SNB-75) was > 100 µM (inactive), the GI50 (SNB-78) was > 100 µM (inactive) and the GI50 (SR) was > 100 µM (inactive). For the same compound, the GI50 (SW-620) was > 100 µM (inactive), the GI50 (U-251) was > 100 µM (inactive) and the GI50 (UACC-257) was > 100 µM (inactive). The GI50 (UACC-62) was > 100 µM (inactive) and the GI50 (UO-31) was 56.8 µM (inactive).

In the case of `CC1(c2cccc(C3CCC4(C=CC3=O)OCCO4)c2)OCCO1` (stereo not given), the GI50 (786-0) is reported as 4.62 µM (inactive), the GI50 (A498) is reported as 16.9 µM (inactive) and the GI50 (A549) is reported as 18.5 µM (inactive). For the same compound, the GI50 (ACHN) was 4.91 µM (inactive), the GI50 (CAKI-1) was 8.61 µM (inactive) and the GI50 (CCRF-CEM) was 2.49 µM (inactive). For the same compound, the GI50 (COLO 205) was 6.14 µM (inactive), the GI50 (DLD-1) was 3.35 µM (inactive) and the GI50 (DMS-114) was 1.8 µM (inactive). For the same compound, the GI50 (DMS-273) was 10.9 µM (inactive), the GI50 (DU-145) was 17.9 µM (inactive) and the GI50 (EKVX) was 19.6 µM (inactive). For the same compound, the GI50 (HCC 2998) was 18.6 µM (inactive), the GI50 (HCT-116) was 4.2 µM (inactive) and the GI50 (HCT-15) was 5.36 µM. For the same compound, the GI50 (HL-60) was 1.62 µM (inactive), the GI50 (HOP-62) was 31 µM (inactive) and the GI50 (HOP-92) was 5.81 µM (inactive). The GI50 (HT-29) was 11.8 µM (inactive), the GI50 (Hs-578T) was 15.3 µM (inactive) and the GI50 (IGROV-1) was 18.4 µM (inactive). For the same compound, the GI50 (K562) was 3.08 µM (inactive), the GI50 (KM-20L2) was 4.07 µM (inactive) and the GI50 (KM12) was 17.4 µM (inactive). For the same compound, the GI50 (LOX IMVI) was 11.8 µM (inactive), the GI50 (LXFL 529) was 1.62 µM (inactive) and the GI50 (M14) was 6.97 µM (inactive). The GI50 (M19-MEL) was 5.62 µM (inactive), the GI50 (MCF7) was 11 µM (inactive) and the GI50 (MDA-MB-231) was 13.2 µM (inactive). The GI50 (MDA-MB-435) was 13.4 µM (inactive), the GI50 (MDA-N) was 10.3 µM (inactive) and the GI50 (MOLT-4) was 2.84 µM (inactive). The GI50 (Malme-3M) was 4.71 µM (inactive), the GI50 (NCI-H226) was 25.9 µM (inactive) and the GI50 (NCI-H23) was 11.5 µM (inactive). For the same compound, the GI50 (NCI-H460) was 16.4 µM (inactive), the GI50 (NCI-H522) was 1.43 µM (inactive) and the GI50 (NCI/ADR-RES) was 14.5 µM (inactive). For the same compound, the GI50 (OVCAR-3) was 5.2 µM (inactive), the GI50 (OVCAR-4) was 7.28 µM (inactive) and the GI50 (OVCAR-5) was 18.2 µM (inactive). For the same compound, the GI50 (OVCAR-8) was 13.5 µM (inactive), the GI50 (PC-3) was 17.2 µM (inactive) and the GI50 (RPMI-8226) was 4.76 µM (inactive). The GI50 (RXF 393) was 5.9 µM (inactive), the GI50 (SF-268) was 17.3 µM (inactive) and the GI50 (SF-295) was 34.3 µM (inactive). For the same compound, the GI50 (SF-539) was 14.8 µM (inactive), the GI50 (SK-MEL-28) was 16 µM (inactive) and the GI50 (SK-MEL-2) was 12.9 µM (inactive). For the same compound, the GI50 (SK-MEL-5) was 14.6 µM (inactive), the GI50 (SK-OV-3) was 30.8 µM (inactive) and the GI50 (SN12C) was 14.5 µM (inactive). For the same compound, the GI50 (SNB-19) was 15.9 µM (inactive), the GI50 (SNB-75) was 16.3 µM (inactive) and the GI50 (SNB-78) was 19.4 µM (inactive). The GI50 (SR) was 3.12 µM (inactive), the GI50 (SW-620) was 2.9 µM (inactive) and the GI50 (T47D) was 8.49 µM (inactive). The GI50 (TK-10) was 8.2 µM (inactive), the GI50 (U-251) was 18.1 µM (inactive) and the GI50 (UACC-257) was 9.48 µM (inactive). The GI50 (UACC-62) was 6.52 µM (inactive) and the GI50 (UO-31) was 6.64 µM (inactive).
